Laboratory results as given in US20230398130A1, “METHODS AND COMPOSITIONS FOR DIFFERENTIATING STEM CELLS” (Massachusetts Institute of Technology, priority 2020, published 2023).

Legend:
[1] = system: ISC-enriched organoids; test: Primary screen, 384-well 2.5-D organoid differentiation (ENR+CD, 6 days): basal lysozyme secretion (LYZ.NS); format: cell-based, murine; settings: for Dose.FC.LYZ.NS / Z.LYZ.NS: primary screen; for Dose.FC.LYZ.NS: FC vs plate median
Description: (§1) High-throughput screening.

[2] = system: ISC-enriched organoids; test: Primary screen, 384-well 2.5-D organoid differentiation (ENR+CD, 6 days): carbachol-induced lysozyme secretion (LYZ.S); format: cell-based, murine; settings: for Dose.FC.LYZ.S: primary screen, FC vs plate median
Description: as §1

[3] = system: ISC-enriched organoids; test: Primary screen, 384-well 2.5-D organoid differentiation (ENR+CD, 6 days, Target Selective Inhibitor Library, vs whole-plate median): ATP (CellTiter-Glo 3D, CTG); settings: for Dose.FC.CTG / Z.CTG: primary screen; for Dose.FC.CTG: FC vs plate median
[4] = dose 0.08 uM (1st of 4 lines per treatment; dose not printed in this part)
[5] = dose 0.40 uM (2nd of 4 lines per treatment; dose not printed in this part)
[6] = dose 2.00 uM (3rd of 4 lines per treatment; dose not printed in this part)
[7] = dose 10.00 uM (4th of 4 lines per treatment; dose not printed in this part)
[8] = dose 0.08 uM, standard z score of FC
[9] = dose 0.40 uM, standard z score of FC
[10] = dose 2.00 uM, standard z score of FC
[11] = dose 10.00 uM, standard z score of FC
[12] = Dose 10.00 uM, standard z score

Compound: O=C(O)C(Cc1ccccc1[N+](=O)[O-])=NNc1nc(-c2ccc(Cl)c(Cl)c2)cs1 (mixture of isomers) [4EGI-1]
- SSMD.LYZ.NS_Rep (strictly standardized mean difference) [1, 4]: 0.378
- SSMD.LYZ.NS_Rep (strictly standardized mean difference) [1, 5]: 0.264
- SSMD.LYZ.NS_Rep (strictly standardized mean difference) [1, 6]: 0.252
- SSMD.LYZ.NS_Rep (strictly standardized mean difference) [1, 7]: −0.257
- Dose.FC.LYZ.NS ([1]; dose 0.08 uM, ENR+CD 6 days): 0.110 log 2 fold change
- Z.LYZ.NS [1, 8]: 0.956
- Dose.FC.LYZ.NS ([1]; dose 0.40 uM, ENR+CD 6 days): 0.036 log 2 fold change
- Z.LYZ.NS [1, 9]: 0.315
- Dose.FC.LYZ.NS ([1]; dose 2.00 uM, ENR+CD 6 days): 0.069 log 2 fold change
- Z.LYZ.NS [1, 10]: 0.597
- Dose.FC.LYZ.NS ([1]; dose 10.00 uM, ENR+CD 6 days): −0.034 log 2 fold change
- Z.LYZ.NS [1, 11]: −0.300
- SSMD.LYZ.S_Rep (strictly standardized mean difference) [2, 4]: −0.264
- Z.LYZ.S (standard z score) [2, 4]: −0.236
- SSMD.LYZ.S_Rep (strictly standardized mean difference) [2, 5]: 0.326
- Z.LYZ.S (standard z score) [2, 5]: 0.352
- SSMD.LYZ.S_Rep (strictly standardized mean difference) [2, 6]: −0.328
- Z.LYZ.S (standard z score) [2, 6]: −0.380
- SSMD.LYZ.S_Rep (strictly standardized mean difference) [2, 7]: 0.189
- Z.LYZ.S (standard z score) [2, 7]: 0.366
- Dose.FC.LYZ.S ([2]; dose 0.08 uM, ENR+CD 6 days): −0.037 log 2 fold change
- Dose.FC.LYZ.S ([2]; dose 0.40 uM, ENR+CD 6 days): 0.054 log 2 fold change
- Dose.FC.LYZ.S ([2]; dose 2.00 uM, ENR+CD 6 days): −0.059 log 2 fold change
- Dose.FC.LYZ.S ([2]; dose 10.00 uM, ENR+CD 6 days): 0.057 log 2 fold change
- SSMD.CTG_Rep (strictly standardized mean difference) [3, 4]: −0.352
- SSMD.CTG_Rep (strictly standardized mean difference) [3, 5]: −0.158
- SSMD.CTG_Rep (strictly standardized mean difference) [3, 6]: 0.407
- SSMD.CTG_Rep (strictly standardized mean difference) [3, 7]: −0.283
- Dose.FC.CTG ([3]; dose 0.08 uM, ENR+CD 6 days): −0.160 log 2 fold change
- Z.CTG [3, 8]: −0.383
- Dose.FC.CTG ([3]; dose 0.40 uM, ENR+CD 6 days): −0.131 log 2 fold change
- Z.CTG [3, 9]: −0.314
- Dose.FC.CTG ([3]; dose 2.00 uM, ENR+CD 6 days): 0.127 log 2 fold change
- Z.CTG [3, 10]: 0.304
- Dose.FC.CTG ([3]; dose 10.00 uM, ENR+CD 6 days): −0.109 log 2 fold change
- Z.CTG [3, 11]: −0.261

Compound: Fc1cc(F)c2c(c1)[C@H]1C=CC[C@H]1C(c1cccnc1)N2 (mixture of isomers) [Golgicide A]
- Dose.FC.LYZ.NS ([1]; Dose 0.08 uM): 0.267 log 2 fold change
- Z.LYZ.NS ([1]; Dose 0.08 uM, standard z score): 2.325
- Dose.FC.LYZ.NS ([1]; Dose 0.40 uM): 0.066 log 2 fold change
- Z.LYZ.NS ([1]; Dose 0.40 uM, standard z score): 0.576
- Dose.FC.LYZ.NS ([1]; Dose 2.00 uM): 0.171 log 2 fold change
- Z.LYZ.NS ([1]; Dose 2.00 uM, standard z score): 1.492
- Dose.FC.LYZ.NS ([1]; Dose 10.00 uM): −0.161 log 2 fold change
- Z.LYZ.NS [1, 12]: −1.402
- Dose.FC.LYZ.S ([2]; Dose 0.08 uM): 0.146 log 2 fold change
- Dose.FC.LYZ.S ([2]; Dose 0.40 uM): 0.202 log 2 fold change
- Dose.FC.LYZ.S ([2]; Dose 2.00 uM): 0.076 log 2 fold change
- Dose.FC.LYZ.S ([2]; Dose 10.00 uM): −0.256 log 2 fold change
- Dose.FC.CTG ([3]; Dose 0.08 uM): 0.167 log 2 fold change
- Z.CTG ([3]; Dose 0.08 uM, standard z score): 0.398
- Dose.FC.CTG ([3]; Dose 0.40 uM): 0.227 log 2 fold change
- Z.CTG ([3]; Dose 0.40 uM, standard z score): 0.541
- Dose.FC.CTG ([3]; Dose 2.00 uM): 0.339 log 2 fold change
- Z.CTG ([3]; Dose 2.00 uM, standard z score): 0.810
- Dose.FC.CTG ([3]; Dose 10.00 uM): −0.220 log 2 fold change
- Z.CTG [3, 12]: −0.526
